Experiments:
Format in all cases: functional
[1] = system: NCI-H23; experiment: Growth inhibition of human NCI-H23 cells assessed as cell growth at 10^-4 M by sulforhodamine B assay; conditions: read-out: Activity
[2] = system: M14; experiment: Growth inhibition of human M14 cells by sulforhodamine B assay
[3] = system: SR; experiment: Growth inhibition of human SR cells assessed as cell growth at 10^-4 M by sulforhodamine B assay; conditions: read-out: Activity
[4] = system: HL-60(TB); experiment: Growth inhibition of human HL-60(TB) cells by sulforhodamine B assay
[5] = system: PC-3; experiment: Growth inhibition of human PC3 cells assessed as cell growth at 10^-6 M by sulforhodamine B assay; conditions: read-out: Activity
[6] = system: CCRF-CEM; experiment: Growth inhibition of human CCRF-CEM cells assessed as cell growth at 10^-8 M by sulforhodamine B assay; conditions: read-out: Activity
[7] = system: HCT-15; experiment: Growth inhibition of human HCT15 cells assessed as cell growth at 10^-8 M by sulforhodamine B assay; conditions: read-out: Activity
[8] = system: UACC-62; experiment: Growth inhibition of human UACC62 cells assessed as cell growth at 10^-8 M by sulforhodamine B assay; conditions: read-out: Activity
[9] = system: 786-0; experiment: Growth inhibition of human 786-0 cells assessed as cell growth at 10^-6 M by sulforhodamine B assay; conditions: read-out: Activity
[10] = system: DU-145; experiment: Growth inhibition of human DU145 cells assessed as cell growth at 10^-6 M by sulforhodamine B assay; conditions: read-out: Activity
[11] = system: SF-295; experiment: Growth inhibition of human SF295 cells assessed as cell growth at 10^-4 M by sulforhodamine B assay; conditions: read-out: Activity
[12] = system: NCI-H460; experiment: Growth inhibition of human NCI-H460 cells assessed as cell growth at 10^-4 M by sulforhodamine B assay; conditions: read-out: Activity
[13] = system: U-251; experiment: Growth inhibition of human U251 cells assessed as cell growth at 10^-7 M by sulforhodamine B assay; conditions: read-out: Activity
[14] = Growth inhibition of human HCC2998 cells assessed as cell growth at 10^-4 M by sulforhodamine B assay; conditions: HCC 2998, read-out: Activity
[15] = Growth inhibition of human HCC2998 cells assessed as cell growth at 10^-7 M by sulforhodamine B assay; conditions: HCC 2998, read-out: Activity
[16] = system: NCI-H23; experiment: Growth inhibition of human NCI-H23 cells by sulforhodamine B assay
[17] = system: OVCAR-8; experiment: Growth inhibition of human OVCAR8 cells assessed as cell growth at 10^-6 M by sulforhodamine B assay; conditions: read-out: Activity
[18] = system: PC-3; experiment: Growth inhibition of human PC3 cells assessed as cell growth at 10^-8 M by sulforhodamine B assay; conditions: read-out: Activity
[19] = Growth inhibition of human Hs 578T cells assessed as cell growth at 10^-4 M by sulforhodamine B assay; conditions: read-out: Activity
[20] = system: TK-10; experiment: Growth inhibition of human TK10 cells assessed as cell growth at 10^-7 M by sulforhodamine B assay; conditions: read-out: Activity
[21] = system: OVCAR-5; experiment: Growth inhibition of human OVCAR5 cells assessed as cell growth at 10^-4 M by sulforhodamine B assay; conditions: read-out: Activity
[22] = system: A549; experiment: Growth inhibition of human A549/ATCC cells by sulforhodamine B assay
[23] = system: CAKI-1; experiment: Growth inhibition of human CAKI-1 cells assessed as cell growth at 10^-4 M by sulforhodamine B assay; conditions: read-out: Activity
[24] = system: T47D; experiment: Growth inhibition of human T47D cells assessed as cell growth at 10^-4 M by sulforhodamine B assay; conditions: read-out: Activity
[25] = system: OVCAR-3; experiment: Growth inhibition of human OVCAR3 cells assessed as cell growth at 10^-8 M by sulforhodamine B assay; conditions: read-out: Activity
[26] = system: SK-MEL-2; experiment: Growth inhibition of human SK-MEL-2 cells assessed as cell growth at 10^-8 M by sulforhodamine B assay; conditions: read-out: Activity
[27] = system: U-251; experiment: Growth inhibition of human U251 cells assessed as cell growth at 10^-6 M by sulforhodamine B assay; conditions: read-out: Activity
[28] = system: MCF7; experiment: Growth inhibition of human MCF7 cells assessed as cell growth at 10^-4 M by sulforhodamine B assay; conditions: read-out: Activity
[29] = system: OVCAR-8; experiment: Growth inhibition of human OVCAR8 cells assessed as cell growth at 10^-7 M by sulforhodamine B assay; conditions: read-out: Activity
[30] = system: SNB-19; experiment: Growth inhibition of human SNB19 cells assessed as cell growth at 10^-6 M by sulforhodamine B assay; conditions: read-out: Activity
[31] = system: SNB-19; experiment: Growth inhibition of human SNB19 cells by sulforhodamine B assay
[32] = system: TK-10; experiment: Growth inhibition of human TK10 cells by sulforhodamine B assay
[33] = system: SNB-75; experiment: Growth inhibition of human SNB75 cells assessed as cell growth at 10^-8 M by sulforhodamine B assay; conditions: read-out: Activity
[34] = system: UACC-257; experiment: Growth inhibition of human UACC257 cells assessed as cell growth at 10^-7 M by sulforhodamine B assay; conditions: read-out: Activity
[35] = system: 786-0; experiment: Growth inhibition of human 786-0 cells assessed as cell growth at 10^-7 M by sulforhodamine B assay; conditions: read-out: Activity
[36] = system: SK-OV-3; experiment: Growth inhibition of human SKOV3 cells assessed as cell growth at 10^-8 M by sulforhodamine B assay; conditions: read-out: Activity
[37] = system: MCF7; experiment: Growth inhibition of human MCF7 cells by sulforhodamine B assay
[38] = system: RXF 393; experiment: Growth inhibition of human RXF393 cells assessed as cell growth at 10^-6 M by sulforhodamine B assay; conditions: read-out: Activity
[39] = system: SN12C; experiment: Growth inhibition of human SN12C cells by sulforhodamine B assay
[40] = system: SF-268; experiment: Growth inhibition of human SF268 cells assessed as cell growth at 10^-4 M by sulforhodamine B assay; conditions: read-out: Activity
[41] = system: SR; experiment: Growth inhibition of human SR cells assessed as cell growth at 10^-6 M by sulforhodamine B assay; conditions: read-out: Activity
[42] = read-out: LC50 (the source's name)
[43] = read-out: pLC50 (the source's name) (converted)

Question: Which results are given for `CC1(C)C[C@@H](O)[C@]2(C(=O)O)CC[C@]3(C)C(=CC[C@@H]4[C@@]5(C)C/C(=C\C=C\c6ccccc6)C(=O)C(C)(C)[C@@H]5CC[C@]43C)[C@@H]2C1`?
Answer: growth at 100 µM [1]: -83%; GI50 ([2]; read-out: GI50): 3.74 µM; CC50 [2, 42]: 52 µM; TGI ([2]; read-out: TGI): 15.8 µM; GI50 ([2]; read-out: pGI50 (converted)): 3.72 µM; CC50 [2, 43]: 52.5 µM; TGI ([2]; read-out: pTGI (converted)): 15.8 µM; growth at 100 µM [3]: -24%; GI50 ([4]; read-out: GI50): 2.92 µM; CC50 [4, 42]: > 100 µM; TGI ([4]; read-out: TGI): 6.89 µM; GI50 ([4]; read-out: pGI50 (converted)): 2.88 µM; CC50 [4, 43]: > 100 µM; TGI ([4]; read-out: pTGI (converted)): 6.92 µM; growth at 1 µM [5]: 80%; growth at 0.01 µM [6]: 95%; growth at 0.01 µM [7]: 97%; growth at 0.01 µM [8]: 96%; growth at 1 µM [9]: 96%; growth at 1 µM [10]: 101%; growth at 100 µM [11]: -66%; growth at 100 µM [12]: -70%; growth at 0.1 µM [13]: 95%; growth at 100 µM [14]: -93%; growth at 0.1 µM [15]: 97%; GI50 ([16]; read-out: GI50): 3.28 µM; CC50 [16, 42]: 43.2 µM; TGI ([16]; read-out: TGI): 12.3 µM; GI50 ([16]; read-out: pGI50 (converted)): 3.31 µM; CC50 [16, 43]: 43.7 µM; TGI ([16]; read-out: pTGI (converted)): 12.3 µM; growth at 1 µM [17]: 93%; growth at 0.01 µM [18]: 97%; growth at 100 µM [19]: -35%; growth at 0.1 µM [20]: 93%; growth at 100 µM [21]: -97%; GI50 ([22]; read-out: GI50): 2.8 µM; CC50 [22, 42]: 63.4 µM; TGI ([22]; read-out: TGI): 11.2 µM; GI50 ([22]; read-out: pGI50 (converted)): 2.82 µM; CC50 [22, 43]: 63.1 µM; TGI ([22]; read-out: pTGI (converted)): 11.2 µM; growth at 100 µM [23]: -49%; growth at 100 µM [24]: -45%; growth at 0.01 µM [25]: 102%; growth at 0.01 µM [26]: 86%; growth at 1 µM [27]: 85%; growth at 100 µM [28]: -68%; growth at 0.1 µM [29]: 97%; growth at 1 µM [30]: 88%; GI50 ([31]; read-out: GI50): 4.03 µM; CC50 [31, 42]: 44.5 µM; TGI ([31]; read-out: TGI): 16.5 µM; GI50 ([31]; read-out: pGI50 (converted)): 4.07 µM; CC50 [31, 43]: 44.7 µM; TGI ([31]; read-out: pTGI (converted)): 16.6 µM; GI50 ([32]; read-out: GI50): 3.71 µM; CC50 [32, 42]: 42.4 µM; TGI ([32]; read-out: TGI): 12.8 µM; GI50 ([32]; read-out: pGI50 (converted)): 3.72 µM; CC50 [32, 43]: 42.7 µM; TGI ([32]; read-out: pTGI (converted)): 12.9 µM; growth at 0.01 µM [33]: 89%; growth at 0.1 µM [34]: 92%; growth at 0.1 µM [35]: 100%; growth at 0.01 µM [36]: 96%; GI50 ([37]; read-out: GI50): 3.23 µM; CC50 [37, 42]: 56.9 µM; TGI ([37]; read-out: TGI): 12.3 µM; GI50 ([37]; read-out: pGI50 (converted)): 3.24 µM; CC50 [37, 43]: 57.5 µM; TGI ([37]; read-out: pTGI (converted)): 12.3 µM; growth at 1 µM [38]: 96%; GI50 ([39]; read-out: GI50): 2.92 µM; CC50 [39, 42]: 36.1 µM; TGI ([39]; read-out: TGI): 10.7 µM; GI50 ([39]; read-out: pGI50 (converted)): 2.88 µM; CC50 [39, 43]: 36.3 µM; TGI ([39]; read-out: pTGI (converted)): 10.7 µM; growth at 100 µM [40]: -83%; growth at 1 µM [41]: 94%
